The target in test [1] is T1, Alpha-2A adrenergic receptor (Homo sapiens, UniProt P08913).
T1 sequence (P08913 whole entry): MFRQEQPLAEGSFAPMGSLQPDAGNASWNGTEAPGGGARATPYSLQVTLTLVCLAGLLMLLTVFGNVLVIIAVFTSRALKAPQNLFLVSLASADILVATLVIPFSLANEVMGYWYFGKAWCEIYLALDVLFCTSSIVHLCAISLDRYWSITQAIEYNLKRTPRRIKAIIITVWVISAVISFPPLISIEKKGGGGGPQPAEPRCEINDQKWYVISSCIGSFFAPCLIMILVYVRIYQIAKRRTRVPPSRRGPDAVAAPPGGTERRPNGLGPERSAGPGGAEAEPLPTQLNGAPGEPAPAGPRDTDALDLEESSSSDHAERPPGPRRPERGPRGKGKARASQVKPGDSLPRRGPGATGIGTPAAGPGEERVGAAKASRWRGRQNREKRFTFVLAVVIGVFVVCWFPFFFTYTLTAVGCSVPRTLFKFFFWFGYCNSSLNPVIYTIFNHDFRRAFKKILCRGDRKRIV
The test can be described thus: Inhibitory activity against alpha-2A adrenergic receptor by using [3H]MK-912 as radioligand expressed in COS-1 cells. The test is classed as cell-based.

Test [2] concerns the target Melanin-concentrating hormone receptor 1 (Homo sapiens, UniProt Q99705). The test can be described thus: Inhibitory activity against human CA-MCH-R1 (Melanin-concentrating hormone receptor 1) by using [125I](Phe13,Tyr19)MCH as radioligand expressed in HEK293 cells. The test is classed as cell-based.
The next test is filed under the species Homo sapiens. The test can be described thus: Selective ratio against Alpha2A adrenergic receptor to that of MCH.
Test [3] has as its target T2, Neuropeptide Y receptor type 5 (Homo sapiens, UniProt Q15761).
T2 sequence (Q15761 whole entry): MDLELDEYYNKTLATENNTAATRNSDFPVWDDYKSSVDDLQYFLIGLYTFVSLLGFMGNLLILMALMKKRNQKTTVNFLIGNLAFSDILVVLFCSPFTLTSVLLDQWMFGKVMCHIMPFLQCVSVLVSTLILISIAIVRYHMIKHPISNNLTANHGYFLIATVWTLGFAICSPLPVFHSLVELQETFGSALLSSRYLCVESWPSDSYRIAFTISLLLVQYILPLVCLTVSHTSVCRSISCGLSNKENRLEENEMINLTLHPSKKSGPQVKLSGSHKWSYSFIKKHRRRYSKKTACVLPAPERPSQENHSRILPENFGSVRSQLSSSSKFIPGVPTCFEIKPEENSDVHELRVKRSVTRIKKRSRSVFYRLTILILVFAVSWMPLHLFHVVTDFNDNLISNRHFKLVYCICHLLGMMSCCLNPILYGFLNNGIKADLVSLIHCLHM
The test can be described thus: Inhibitory activity against neuropeptide Y receptor type 5 by using [125I]PYY as radioligand expressed in COS-1 cells. The test is classed as cell-based.

Chain of Melanin-concentrating hormone receptor 1 (Q99705 whole entry): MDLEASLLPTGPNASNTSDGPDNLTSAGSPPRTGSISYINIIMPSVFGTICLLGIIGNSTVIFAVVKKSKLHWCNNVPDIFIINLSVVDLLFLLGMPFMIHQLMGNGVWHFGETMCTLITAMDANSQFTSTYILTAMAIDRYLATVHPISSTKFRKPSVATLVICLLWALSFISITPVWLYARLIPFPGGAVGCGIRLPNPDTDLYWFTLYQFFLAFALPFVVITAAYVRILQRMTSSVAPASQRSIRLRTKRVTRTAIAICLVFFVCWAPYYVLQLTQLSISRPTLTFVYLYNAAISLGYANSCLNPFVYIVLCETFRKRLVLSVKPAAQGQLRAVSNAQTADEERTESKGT

As to `COc1cc(OC)cc(C(=O)N[C@H]2CC[C@@H](Nc3nc(N(C)C)c4ccccc4n3)CC2)c1`, the values for the IC50 in test [1] and in test [2] were 71 nM and 2 nM, respectively. Further, the Selectivity in the test filed under Homo sapiens is 36.
Regarding `CN(C)c1nc(N[C@H]2CC[C@@H](NC(=O)c3ccc(F)c(F)c3)CC2)nc2ccccc12`, the IC50 (commonly the midpoint of a concentration-inhibition curve) in test [3] turned out to be 2700 nM; in test [1], 260 nM.
Regarding `CN(C)c1nc(NC2CCC(CNCc3ccc(Br)cc3OC(F)(F)F)CC2)nc2ccccc12` (cis isomer), the half-maximal inhibitory concentration (IC50) was determined as 2400 nM in test [3], 360 nM in test [1] and 4.9 nM in test [2].
Consider `CN(C)c1nc(N[C@H]2CC[C@@H](CNS(=O)(=O)c3ccc(Br)cc3OC(F)(F)F)CC2)nc2ccccc12`, for which the 50% inhibitory concentration (IC50) in test [3] came out at 120 nM; in test [1], 130 nM; in test [2] it was 140 nM.
Take `CN(C)c1nc(N[C@H]2CC[C@@H](NC(=O)c3ccc(F)cc3)CC2)nc2ccccc12`: the IC50 was 150 nM in test [1] and 9.4 nM in test [2]. Further, the Selectivity in the test listed under Homo sapiens came out at 16.
In the case of `CN(C)c1nc(NC2CCN(Cc3ccc(Br)cc3OC(F)(F)F)CC2)nc2ccccc12`, the figures for the IC50 in test [3], in test [1] and in test [2] were greater than 1000 nM, 520 nM and 320 nM, respectively.
The corresponding values for `CN(C)c1nc(NC2CCC(CNC(=O)c3ccc(Br)cc3OC(F)(F)F)CC2)nc2ccccc12` (cis isomer) are 1800 nM, 570 nM and 79 nM.
For `CN(C)c1nc(N[C@H]2CC[C@@H](NC(=O)c3cccc(F)c3)CC2)nc2ccccc12`, the IC50 was 130 nM in test [1] and 9.5 nM in test [2]. Moreover, in the test listed under Homo sapiens, the Selectivity amounted to 14.
As to `CN(C)c1nc(NC2CCC(NC(=O)c3ccc(Br)cc3OC(F)(F)F)CC2)nc2ccccc12` (cis isomer), the figures for the IC50 in test [3], in test [1] and in test [2] were greater than 1000 nM, 390 nM and 160 nM, respectively. In the test filed under Homo sapiens, the Selectivity was found to be 2.4.
Consider `CN(C)c1nc(N[C@H]2CC[C@@H](NC(=O)c3cccc(C(F)(F)F)c3)CC2)nc2ccccc12`, for which the values for the IC50 in test [1] and in test [2] were 60 nM and 15 nM, respectively. Also, the Selectivity in the test listed under Homo sapiens came out at 4.
On to `CN(C)c1nc(NCC2CCC(CN(C)S(=O)(=O)c3ccc(Br)cc3OC(F)(F)F)CC2)nc2ccccc12` (stereo unspecified), for which the IC50 in test [3] was found to be 460 nM; in test [1], 34 nM; in test [2], 5800 nM.
Turning to `CN(C)c1nc(N[C@H]2CC[C@@H](NC(=O)c3ccc(Cl)c(Cl)c3)CC2)nc2ccccc12`, the values for the 50% inhibitory concentration (IC50) in test [1] and in test [2] were 47 nM and 5 nM, respectively. Besides, in the test listed under Homo sapiens, the Selectivity is 9.4.
As for `CN(C)c1nc(N[C@H]2CC[C@@H](NC(=O)c3cccc([N+](=O)[O-])c3)CC2)nc2ccccc12`, the IC50 in test [1] worked out at 97 nM; in test [2], 6.8 nM. In the test listed under Homo sapiens, the Selectivity amounted to 14.
On to `CN(Cc1ccc(Br)cc1OC(F)(F)F)CC1CCC(CNc2nc(N(C)C)c3ccccc3n2)CC1` (stereo unspecified), for which the results for the IC50 in test [3], in test [1] and in test [2] were greater than 1000 nM, 44 nM and 5600 nM, respectively.
For the compound `CN(C)c1nc(NC[C@H]2CC[C@H](CNS(=O)(=O)c3ccc(Br)cc3OC(F)(F)F)CC2)nc2ccccc12`, the IC50 in test [3] stood at 2.7 nM; in test [1] it was 7.7 nM; in test [2], 160 nM.
The like results for `CN(C)c1nc(NCC2CCC(CNCc3ccc(Br)cc3OC(F)(F)F)CC2)nc2ccccc12` (stereo unspecified) were, in that order, 560 nM, 31 nM and 960 nM.
In the case of `CN(C)c1nc(N[C@H]2CC[C@@H](NC(=O)c3ccc(F)c(F)c3F)CC2)nc2ccccc12`, the IC50 in test [1] came to 200 nM; in test [2] it was 38 nM. Further, in the test listed under Homo sapiens, the Selectivity amounted to 5.3.
For `CN(C)c1nc(NC2CCN(C(=O)c3ccc(Br)cc3OC(F)(F)F)CC2)nc2ccccc12`, the IC50 in test [2] came to 1200 nM. That is a single-digit micromolar value.
`CN(C)c1nc(N[C@H]2CC[C@@H](NC(=O)c3cccc(Cl)c3)CC2)nc2ccccc12`: the IC50 was 76 nM in test [1] and 4.5 nM in test [2]. Besides, in the test listed under Homo sapiens, the Selectivity amounted to 17.
The like results for `CN(C)c1nc(N[C@H]2CC[C@@H](NC(=O)c3cccc(C#N)c3)CC2)nc2ccccc12` were, in that order, 150 nM, 10 nM and 15.
Consider `CN(C)c1nc(N[C@H]2CC[C@@H](NC(=O)c3ccccc3F)CC2)nc2ccccc12`, for which the IC50 in test [2] was found to be 170 nM.
`CN(C)c1nc(N[C@H]2CC[C@@H](NC(=O)c3cccc(Br)c3)CC2)nc2ccccc12`: the values for the 50% inhibitory concentration (IC50) in test [1] and in test [2] were 63 nM and 5.9 nM, respectively. Besides, the Selectivity in the test filed under Homo sapiens was found to be 11.
As for `Cc1cccc(C(=O)N[C@H]2CC[C@@H](Nc3nc(N(C)C)c4ccccc4n3)CC2)c1`, the values for the IC50 in test [1] and in test [2] were 110 nM and 4.6 nM, respectively. Moreover, the Selectivity in the test listed under Homo sapiens is 24.
On to `CN(C)c1nc(NC2CCC(NCc3ccc(Br)cc3OC(F)(F)F)CC2)nc2ccccc12` (stereo unspecified), for which the figures for the IC50 in test [3], in test [1] and in test [2] were greater than 1000 nM, 170 nM and 35 nM, respectively.
Consider `CN(C)c1nc(NC2CCN(S(=O)(=O)c3ccc(Br)cc3OC(F)(F)F)CC2)nc2ccccc12`, for which the IC50 in test [1] was determined as 170 nM; in test [2], 250 nM.
With `CN(C)c1nc(N[C@H]2CC[C@@H](NS(=O)(=O)c3ccc(Br)cc3OC(F)(F)F)CC2)nc2ccccc12`, the IC50 worked out at 880 nM in test [3], 57 nM in test [1] and 83 nM in test [2].
The like results for `CN(C)c1nc(NCC2CCC(CNC(=O)c3ccc(Br)cc3OC(F)(F)F)CC2)nc2ccccc12` (stereo unspecified) were, in that order, 470 nM, 9.9 nM and 1500 nM.

These data come from ChEMBL document CHEMBL1142793, “Lead optimization of 4-(dimethylamino)quinazolines, potent and selective antagonists for the melanin-concentrating hormone receptor 1” (Bioorg Med Chem Lett, 2005).
